Test results published in US11293024B2, “Antisense antibacterial compounds and methods” (priority 2014, dated 2022).

Tested on: P. aeruginosa PAO1 biofilm
Assay: Biofilm prevention in MBEC plate (crystal violet)
Type: cell-based, Pseudomonas aeruginosa
Conditions: 5 μM PPMO, 2 μg/mL PMBN, MHII, 20 hours; one-way ANOVA p<0.0001
Protocol: P. aeruginosa PAO1 (5×10^5 cfu/mL) was grown in MHII media in an MBEC plate for 20 hours either alone or in the presence of 5 μM of the indicated PPMOs, PMBN alone, (RXR)4, or a scrambled PPMO. All conditions contained 2 μg/mL of PMBN unless indicated otherwise. Pegs were processed for crystal violet or visualized by microscopy at 20 hours. […] FIGS. 6B-6D: Spinning Disk confocal microscopy images of 20 hour biofilm treated with (FIG. 6B) No PPMO, (FIG. 6C) 5 μM Scr PPMO #41, (FIG. 6D) 5 μM RpsJ PPMO #14. PAO1 GFP is shown in green and biofilm is shown in red. The biofilm is stained with 200 μg/mL of Concanavalin A, Alexafluor 647 conjugate.
Pseudomonas aeruginosa Biofilm Prevention in MBEC Plate Protocol
• 1. 10 mL of MH is inoculated with a single colony and incubated at 37° C. and ˜250 rpm for about 5 hours. • 2. The sample is centrifuged for 10 minutes at ˜4000 rpm at 4° C., the supernatant is decanted and the pellet resuspended in 10 mL of 150 mM NaCl or PBS. This step is repeated to wash the pellet 3 times. • 3. The sample is resuspended in 10 mL 150 mM NaCl or PBS. • 4. The OD600 of the sample is taken and cfu/mL is calculated. (OD600 usually between 0.65-0.80). • 5. A Bacterial Working Solution (BWS) is made by inoculating 10 mL of MH to 5×10^5 cfu/mL final concentration. • 6. 2 μL/mL of 1 mg/mL stock PMBN is added to the BWS and vortexed 3 times. • 7. 1 mL of BWS is pipetted into each separate Eppendorf tube for each condition that is tested. • 8. An appropriate amount of PPMO is added to each Eppendorf tube and vortexed 3 times. • 9. Outside wells are filled with fresh MH, NaCl, or PBS to keep the outer pegs from drying out. • 10. One column of the MBEC plate is filled with 150 μL per well from each Eppendorf tube (one condition per column). • 11. Pegs are placed into the MBEC plate and the edges covered with a breathable membrane. • 12. The MBEC plate is incubated for 18-20 hours at 37° C. and 110 rpm. Day 2:
1. […] The final OD570 of the 10× dilution of solution should be approximately 0.500 absorbance. […]
2. OD reading: The OD570 for the 96-well plate from step 1e is determined. […]

Substance: PPMO #14: RpsJ PMO GCATTTGACCT, 5′ TEG, 3′ (RXR)4XB CPP
- prevention of biofilm (crystal violet): statistically significant prevention of biofilm
